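Dose response: 5 concentrations. Exposure: 48 h. Format: 96-well plates. Endpoint: linear interpolation; highest concentration if not reached. Definition used: TGI = concentration required for complete inhibition of growth.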
Assays:
Experiment in all cases: NCI-60 cell line screen, 48 h
[1] = tested on: RPMI-8226 leukemia
[2] = tested on: A498 renal
[3] = tested on: SNB-75 CNS
[4] = tested on: K-562 leukemia
[5] = tested on: NCI-H460 lung
[6] = tested on: MDA-MB-231 breast
[7] = tested on: SF-539 CNS
[8] = tested on: ACHN renal
[9] = tested on: LOX IMVI melanoma
[10] = tested on: HOP-62 NSCLC
[11] = tested on: OVCAR-4 ovarian
[12] = tested on: SR leukemia
[13] = tested on: UACC-62 melanoma
[14] = tested on: MDA-N
[15] = tested on: MOLT-4 leukemia
[16] = tested on: UACC-257 melanoma
[17] = tested on: SK-MEL-28 melanoma
[18] = tested on: HT29 colon
[19] = tested on: SNB-19 CNS
[20] = tested on: NCI/ADR-RES ovarian
[21] = tested on: MDA-MB-435
[22] = tested on: HS 578T breast
[23] = tested on: SF-268 CNS
[24] = tested on: NCI-H226 lung
[25] = tested on: TK-10 renal
[26] = tested on: CAKI-1 renal
[27] = tested on: SW-620 colon
[28] = tested on: PC-3 prostate
[29] = tested on: U251 CNS
[30] = tested on: KM12 colon
[31] = tested on: SK-MEL-5 melanoma
[32] = tested on: SK-OV-3 ovarian
[33] = tested on: OVCAR-8 ovarian
[34] = tested on: T-47D breast
[35] = tested on: SK-MEL-2 melanoma
[36] = tested on: DU-145 prostate
[37] = tested on: UO-31 renal
[38] = tested on: M14 melanoma
[39] = tested on: NCI-H522 lung
[40] = tested on: HL-60(TB) leukemia
[41] = tested on: CCRF-CEM leukemia
[42] = tested on: 786-0 renal
[43] = tested on: OVCAR-5 ovarian
[44] = tested on: BT-549 breast
[45] = tested on: SN12C renal
[46] = tested on: MCF7 breast
[47] = tested on: HCT-15 colon
[48] = tested on: SF-295 CNS
[49] = tested on: NCI-H23 lung
[50] = tested on: EKVX NSCLC
[51] = tested on: HCT-116 colon
[52] = tested on: IGROV1 ovarian
[53] = tested on: COLO 205 colon
[54] = tested on: OVCAR-3 ovarian
[55] = tested on: A549 NSCLC
[56] = tested on: RXF 393 renal
[57] = tested on: MALME-3M melanoma
[58] = tested on: HCC-2998 colon
[59] = tested on: HOP-92 NSCLC

## CC(=O)N=c1ccc2nc(N)nn(O)c-2c1
[1]
  TGI: > 100 µM
[2]
  TGI: > 100 µM
[3]
  TGI: > 100 µM
[4]
  TGI: > 100 µM
[5]
  TGI: > 100 µM
[6]
  TGI: > 100 µM
[7]
  TGI: > 100 µM
[8]
  TGI: > 100 µM
[9]
  TGI: > 100 µM
[10]
  TGI: > 100 µM
[11]
  TGI: > 100 µM
[12]
  TGI: > 100 µM
[13]
  TGI: > 100 µM
[14]
  TGI: > 100 µM
[15]
  TGI: > 100 µM
[16]
  TGI: > 100 µM
[17]
  TGI: > 100 µM
[18]
  TGI: > 100 µM
[19]
  TGI: > 100 µM
[20]
  TGI: > 100 µM
[21]
  TGI: > 100 µM
[22]
  TGI: > 100 µM
[23]
  TGI: > 100 µM
[24]
  TGI: > 100 µM
[25]
  TGI: > 100 µM
[26]
  TGI: > 100 µM
[27]
  TGI: > 100 µM
[28]
  TGI: > 100 µM
[29]
  TGI: > 100 µM
[30]
  TGI: > 100 µM
[31]
  TGI: > 100 µM
[32]
  TGI: > 100 µM
[33]
  TGI: > 100 µM
[34]
  TGI: > 100 µM
[35]
  TGI: > 100 µM
[36]
  TGI: > 100 µM
[37]
  TGI: > 100 µM
[38]
  TGI: > 100 µM
[39]
  TGI: > 100 µM
[40]
  TGI: > 100 µM
[41]
  TGI: > 100 µM
[42]
  TGI: > 100 µM
[43]
  TGI: > 100 µM
[44]
  TGI: > 100 µM
[45]
  TGI: > 100 µM
[46]
  TGI: > 100 µM
[47]
  TGI: > 100 µM
[48]
  TGI: > 100 µM
[49]
  TGI: > 100 µM
[50]
  TGI: > 100 µM
[51]
  TGI: > 100 µM
[52]
  TGI: > 100 µM
[53]
  TGI: > 100 µM
[54]
  TGI: > 100 µM
[55]
  TGI: > 100 µM

## CC[C@@H]1CC[C@@H]2[C@H](CC[C@]3(C)[C@@H](OC(C)=O)CC[C@@H]23)[C@H]1C(=O)OC
[1]
  TGI: 46.5 µM
[2]
  TGI: > 100 µM
[3]
  TGI: 69 µM
[4]
  TGI: 40.1 µM
[5]
  TGI: 51.6 µM
[6]
  TGI: 46 µM
[7]
  TGI: 38.3 µM
[8]
  TGI: > 100 µM
[9]
  TGI: 35.6 µM
[10]
  TGI: 53.7 µM
[11]
  TGI: 52.8 µM
[13]
  TGI: 49.4 µM
[14]
  TGI: 41.4 µM
[15]
  TGI: 42 µM
[16]
  TGI: 54.3 µM
[17]
  TGI: > 100 µM
[56]
  TGI: 49.8 µM
[57]
  TGI: 33.3 µM
[18]
  TGI: 67.2 µM
[19]
  TGI: 72.4 µM
[20]
  TGI: 68.5 µM
[21]
  TGI: 41.9 µM
[22]
  TGI: > 100 µM
[23]
  TGI: 81.1 µM
[24]
  TGI: 38 µM
[25]
  TGI: > 100 µM
[26]
  TGI: > 100 µM
[27]
  TGI: 48.8 µM
[58]
  TGI: > 100 µM
[28]
  TGI: 67.3 µM
[29]
  TGI: 43.3 µM
[30]
  TGI: 52.1 µM
[31]
  TGI: 27.7 µM
[32]
  TGI: > 100 µM
[33]
  TGI: 76.9 µM
[34]
  TGI: 66.8 µM
[35]
  TGI: 39.2 µM
[36]
  TGI: 86.1 µM
[37]
  TGI: > 100 µM
[38]
  TGI: 42.3 µM
[39]
  TGI: 47.8 µM
[40]
  TGI: 31.3 µM
[41]
  TGI: 47.9 µM
[42]
  TGI: 47.3 µM
[43]
  TGI: 59.5 µM
[44]
  TGI: > 100 µM
[45]
  TGI: 69.9 µM
[46]
  TGI: 60.3 µM
[47]
  TGI: 49.5 µM
[48]
  TGI: 46.6 µM
[49]
  TGI: 59.6 µM
[50]
  TGI: 58.6 µM
[51]
  TGI: 33.7 µM
[59]
  TGI: 37.3 µM
[52]
  TGI: 89.8 µM
[53]
  TGI: 29.5 µM
[54]
  TGI: 34.4 µM
[55]
  TGI: 70.8 µM

From PubChem BioAssay (NCI)
